Reference: patent US20050256182A1, “Formulations of anti-pain agents and methods of using the same” (priority 2004, published 2005)

Experiment: Crossover PK study: sumatriptan plasma levels (LC/MS/MS) after ID, junctional or SC administration; Tmax, Cmax, AUC, relative F
Format: in vivo
Settings: Yucatan miniswine, mean; for AUC 0-10 min: Yucatan, minipig, plasma, AUC 10 min.
[1] = 3 × 3 mm × 34 g, 12 mg/ml, 5 minutes metered bolus
[2] = SC, 12 mg/ml (reference condition)

Experimental: Percent (%) relative Bioavailability (F) for each dosing condition was calculated compared to the SC condition: [formula]

SMILES: CNS(=O)(=O)Cc1ccc2[nH]cc(CCN(C)C)c2c1 [sumatriptan, 3-[2-(dimethylamino)ethyl]-N-methyl-indole-5-methanesulfonamide]
- C max (1 × 2 mm × 30 g, 30 mg/ml): 849.333 ng/mL
- C max (1 × 3 mm × 30 g, 30 mg/ml): 836.667 ng/mL
- C max [1]: 705.833 ng/mL
- rel. F 10 min [2]: 100.000%
- rel. F Total [2]: 100.000%
- AUC 0-10 min (1 × 1.5 mm × 30 g, 0 mg/ml): 84.7 ng·h/mL
- AUC 0-10 min (1 × 2 mm × 30 g, 30 mg/ml): 75.2 ng·h/mL
- AUC 0-10 min (1 × 3 mm × 30 g, 30 mg/ml): 86.4 ng·h/mL
- AUC 0-10 min (3 × 2 mm × 34 g, 30 mg/ml): 69.5 ng·h/mL
- AUC 0-10 min [1]: 52.8 ng·h/mL
- AUC 0-10 min (3 × 3 mm × 34 g, 30 mg/ml, 2 minute metered bolus): 53.4 ng·h/mL
- AUC 0-10 min (iv, 12 mg/ml): 59.8 ng·h/mL
- AUC 0-10 min (sc, 12 mg/ml): 45.3 ng·h/mL
